{"source": "patent US7005453B1", "about": "“Use of hop acids to inhibit growth of Staphylococcus aureus and prevent toxic shock syndrome” (Miller Brewing Company, priority 1999, dated 2006)", "key": {"Staphylococcus aureus": {"tested_on": "Staphylococcus aureus", "experiment": "MIC assay using Staphylococcus aureus in trypticase soy broth, growth scored by turbidity", "format": "cell-based", "conditions": "for growth (turbidity score): aerobic 37° C., three days; for minimum inhibitory concentration: S. aureus at pH 6.0", "method": "(§1) Minimal inhibitory concentration (MIC) assays of several hop compounds were conducted using a Staphylococcus aureus species and vaginal isolates Lactobacillus vaginalias, Lactobacillus crispatus, Lactobacillus gasseri, and Lactobacillus jensenii as test microorganisms. Lactobacillus assays were conducted in Lactobacillus MRS broth (Difco) tubes. A 0.1 ml aliquot of a 1% (w/w) solution of each hop acid in alcohol was added to a tube of sterile MRS broth to give a final concentration of 100 ppm of the hop. This solution was serially diluted in tubes with sterile MRS broth using a two-fold dilution series. A second dilution series prepared as above, but using 0.1 ml alcohol without hop acid, was used as a positive control of bacterial growth. Each tube was inoculated with a fresh culture (10^4 cells) of a Lactobacillus species in MRS broth. The cultures were incubated anaerobically in a CO2 incubator at 28° C. for five days. Growth was evaluated by visually assessing and scoring development of turbidity in the tube of broth.\nThe MIC assays for Staphylococcus aureus were conducted in Difco trypticase soy broth (TSB) using the same serial dilution technique and the inoculum level as described above. The pH of the TSB was adjusted to pH7.0, pH 6.0, or pH5.0 using hydrochloric acid. The tubes were incubated aerobically at 37° C. for three days and growth was evaluated by visually assessing and scored the development of turbidity in the broth."}, "Lactobacillus species": {"tested_on": "Lactobacillus species", "experiment": "MIC assay using Lactobacillus species (vaginal isolates) in MRS broth, growth scored by turbidity", "format": "cell-based", "conditions": "for growth (turbidity score): MRS at pH 6.3, anaerobic 28° C., five days; for concentration as high as which Lactobacillus exhibited strong growth: Lactobacillus species tested", "method": "as §1"}}}
{"substance": "hexahydro beta acids", "values": [{"measurement": "growth (turbidity score)", "setting": "Staphylococcus aureus; 0.2 ppm, TSB at pH 5.0", "result": "No growth"}, {"measurement": "growth (turbidity score)", "setting": "Staphylococcus aureus; 0.2 ppm, TSB at pH 6.0", "result": "+ Growth"}, {"measurement": "growth (turbidity score)", "setting": "Staphylococcus aureus; 0.2 ppm, TSB at pH 7.0", "result": "+++ Growth"}, {"measurement": "growth (turbidity score)", "setting": "Staphylococcus aureus; 0.39 ppm, TSB at pH 5.0", "result": "No growth"}, {"measurement": "growth (turbidity score)", "setting": "Staphylococcus aureus; 0.39 ppm, TSB at pH 6.0", "result": "No growth"}, {"measurement": "growth (turbidity score)", "setting": "Staphylococcus aureus; 0.39 ppm, TSB at pH 7.0", "result": "++ Growth"}, {"measurement": "growth (turbidity score)", "setting": "Staphylococcus aureus; 0.78 ppm, TSB at pH 5.0", "result": "No growth"}, {"measurement": "growth (turbidity score)", "setting": "Staphylococcus aureus; 0.78 ppm, TSB at pH 6.0", "result": "No growth"}, {"measurement": "growth (turbidity score)", "setting": "Staphylococcus aureus; 0.78 ppm, TSB at pH 7.0", "result": "+ Growth"}, {"measurement": "growth (turbidity score)", "setting": "Staphylococcus aureus; 1.56 ppm, TSB at pH 5.0", "result": "No growth"}, {"measurement": "growth (turbidity score)", "setting": "Staphylococcus aureus; 1.56 ppm, TSB at pH 6.0", "result": "No growth"}, {"measurement": "growth (turbidity score)", "setting": "Staphylococcus aureus; 1.56 ppm, TSB at pH 7.0", "result": "+/− Growth"}, {"measurement": "growth (turbidity score)", "setting": "Staphylococcus aureus; 3.125 ppm, TSB at pH 5.0", "result": "No growth"}, {"measurement": "growth (turbidity score)", "setting": "Staphylococcus aureus; 3.125 ppm, TSB at pH 6.0", "result": "No growth"}, {"measurement": "growth (turbidity score)", "setting": "Staphylococcus aureus; 3.125 ppm, TSB at pH 7.0", "result": "No growth"}, {"measurement": "growth (turbidity score)", "setting": "Staphylococcus aureus; 6.25 ppm, TSB at pH 5.0", "result": "No growth"}, {"measurement": "growth (turbidity score)", "setting": "Staphylococcus aureus; 6.25 ppm, TSB at pH 6.0", "result": "No growth"}, {"measurement": "growth (turbidity score)", "setting": "Staphylococcus aureus; 6.25 ppm, TSB at pH 7.0", "result": "No growth"}, {"measurement": "growth (turbidity score)", "setting": "Staphylococcus aureus; 12.5 ppm, TSB at pH 5.0", "result": "No growth"}, {"measurement": "growth (turbidity score)", "setting": "Staphylococcus aureus; 12.5 ppm, TSB at pH 6.0", "result": "No growth"}, {"measurement": "growth (turbidity score)", "setting": "Staphylococcus aureus; 12.5 ppm, TSB at pH 7.0", "result": "No growth"}, {"measurement": "growth (turbidity score)", "setting": "Staphylococcus aureus; 25 ppm, TSB at pH 5.0", "result": "No growth"}, {"measurement": "growth (turbidity score)", "setting": "Staphylococcus aureus; 25 ppm, TSB at pH 6.0", "result": "No growth"}, {"measurement": "growth (turbidity score)", "setting": "Staphylococcus aureus; 25 ppm, TSB at pH 7.0", "result": "No growth"}, {"measurement": "growth (turbidity score)", "setting": "Staphylococcus aureus; 50 ppm, TSB at pH 5.0", "result": "No growth"}, {"measurement": "growth (turbidity score)", "setting": "Staphylococcus aureus; 50 ppm, TSB at pH 6.0", "result": "No growth"}, {"measurement": "growth (turbidity score)", "setting": "Staphylococcus aureus; 50 ppm, TSB at pH 7.0", "result": "No growth"}, {"measurement": "growth (turbidity score)", "setting": "Staphylococcus aureus; 100 ppm, TSB at pH 5.0", "result": "No growth"}, {"measurement": "growth (turbidity score)", "setting": "Staphylococcus aureus; 100 ppm, TSB at pH 6.0", "result": "No growth"}, {"measurement": "growth (turbidity score)", "setting": "Staphylococcus aureus; 100 ppm, TSB at pH 7.0", "result": "No growth"}, {"measurement": "concentration as low as which S. aureus showed no to very weak growth", "setting": "Staphylococcus aureus", "result": 1.56, "unit": "ppm"}, {"measurement": "minimum inhibitory concentration", "setting": "Staphylococcus aureus", "result": 0.78, "unit": "ppm"}, {"measurement": "growth (turbidity score)", "setting": "Lactobacillus species; 0.2 ppm", "result": "+++ Growth"}, {"measurement": "growth (turbidity score)", "setting": "Lactobacillus species; 0.39 ppm", "result": "+++ Growth"}, {"measurement": "growth (turbidity score)", "setting": "Lactobacillus species; 0.78 ppm", "result": "+++ Growth"}, {"measurement": "growth (turbidity score)", "setting": "Lactobacillus species; 1.56 ppm", "result": "+++ Growth"}, {"measurement": "growth (turbidity score)", "setting": "Lactobacillus species; 3.125 ppm", "result": "+++ Growth"}, {"measurement": "growth (turbidity score)", "setting": "Lactobacillus species; 6.25 ppm", "result": "+++ Growth"}, {"measurement": "growth (turbidity score)", "setting": "Lactobacillus species; 12.5 ppm", "result": "+++ Growth"}, {"measurement": "growth (turbidity score)", "setting": "Lactobacillus species; 25 ppm", "result": "+/− Growth"}, {"measurement": "growth (turbidity score)", "setting": "Lactobacillus species; 50 ppm", "result": "No growth"}, {"measurement": "growth (turbidity score)", "setting": "Lactobacillus species; 100 ppm", "result": "No growth"}, {"measurement": "concentration as high as which Lactobacillus exhibited strong growth", "setting": "Lactobacillus species", "result": 12.5, "unit": "ppm"}]}
{"substance": "tetrahydroiso alpha acids", "values": [{"measurement": "growth (turbidity score)", "setting": "Staphylococcus aureus; 0.2 ppm, TSB at pH 5.0", "result": "No growth"}, {"measurement": "growth (turbidity score)", "setting": "Staphylococcus aureus; 0.2 ppm, TSB at pH 6.0", "result": "++ Growth"}, {"measurement": "growth (turbidity score)", "setting": "Staphylococcus aureus; 0.2 ppm, TSB at pH 7.0", "result": "+++ Growth"}, {"measurement": "growth (turbidity score)", "setting": "Staphylococcus aureus; 0.39 ppm, TSB at pH 5.0", "result": "No growth"}, {"measurement": "growth (turbidity score)", "setting": "Staphylococcus aureus; 0.39 ppm, TSB at pH 6.0", "result": "+/− Growth"}, {"measurement": "growth (turbidity score)", "setting": "Staphylococcus aureus; 0.39 ppm, TSB at pH 7.0", "result": "++ Growth"}, {"measurement": "growth (turbidity score)", "setting": "Staphylococcus aureus; 0.78 ppm, TSB at pH 5.0", "result": "No growth"}, {"measurement": "growth (turbidity score)", "setting": "Staphylococcus aureus; 0.78 ppm, TSB at pH 6.0", "result": "No growth"}, {"measurement": "growth (turbidity score)", "setting": "Staphylococcus aureus; 0.78 ppm, TSB at pH 7.0", "result": "+ Growth"}, {"measurement": "growth (turbidity score)", "setting": "Staphylococcus aureus; 1.56 ppm, TSB at pH 5.0", "result": "No growth"}, {"measurement": "growth (turbidity score)", "setting": "Staphylococcus aureus; 1.56 ppm, TSB at pH 6.0", "result": "No growth"}, {"measurement": "growth (turbidity score)", "setting": "Staphylococcus aureus; 1.56 ppm, TSB at pH 7.0", "result": "+/− Growth"}, {"measurement": "growth (turbidity score)", "setting": "Staphylococcus aureus; 3.125 ppm, TSB at pH 5.0", "result": "No growth"}, {"measurement": "growth (turbidity score)", "setting": "Staphylococcus aureus; 3.125 ppm, TSB at pH 6.0", "result": "No growth"}, {"measurement": "growth (turbidity score)", "setting": "Staphylococcus aureus; 3.125 ppm, TSB at pH 7.0", "result": "No growth"}, {"measurement": "growth (turbidity score)", "setting": "Staphylococcus aureus; 6.25 ppm, TSB at pH 5.0", "result": "No growth"}, {"measurement": "growth (turbidity score)", "setting": "Staphylococcus aureus; 6.25 ppm, TSB at pH 6.0", "result": "No growth"}, {"measurement": "growth (turbidity score)", "setting": "Staphylococcus aureus; 6.25 ppm, TSB at pH 7.0", "result": "No growth"}, {"measurement": "growth (turbidity score)", "setting": "Staphylococcus aureus; 12.5 ppm, TSB at pH 5.0", "result": "No growth"}, {"measurement": "growth (turbidity score)", "setting": "Staphylococcus aureus; 12.5 ppm, TSB at pH 6.0", "result": "No growth"}, {"measurement": "growth (turbidity score)", "setting": "Staphylococcus aureus; 12.5 ppm, TSB at pH 7.0", "result": "No growth"}, {"measurement": "growth (turbidity score)", "setting": "Staphylococcus aureus; 25 ppm, TSB at pH 5.0", "result": "No growth"}, {"measurement": "growth (turbidity score)", "setting": "Staphylococcus aureus; 25 ppm, TSB at pH 6.0", "result": "No growth"}, {"measurement": "growth (turbidity score)", "setting": "Staphylococcus aureus; 25 ppm, TSB at pH 7.0", "result": "No growth"}, {"measurement": "growth (turbidity score)", "setting": "Staphylococcus aureus; 50 ppm, TSB at pH 5.0", "result": "No growth"}, {"measurement": "growth (turbidity score)", "setting": "Staphylococcus aureus; 50 ppm, TSB at pH 6.0", "result": "No growth"}, {"measurement": "growth (turbidity score)", "setting": "Staphylococcus aureus; 50 ppm, TSB at pH 7.0", "result": "No growth"}, {"measurement": "growth (turbidity score)", "setting": "Staphylococcus aureus; 100 ppm, TSB at pH 5.0", "result": "No growth"}, {"measurement": "growth (turbidity score)", "setting": "Staphylococcus aureus; 100 ppm, TSB at pH 6.0", "result": "No growth"}, {"measurement": "growth (turbidity score)", "setting": "Staphylococcus aureus; 100 ppm, TSB at pH 7.0", "result": "No growth"}, {"measurement": "concentration as low as which S. aureus showed no to very weak growth", "setting": "Staphylococcus aureus", "result": 1.56, "unit": "ppm"}, {"measurement": "minimum inhibitory concentration", "setting": "Staphylococcus aureus", "result": 0.78, "unit": "ppm"}, {"measurement": "growth (turbidity score)", "setting": "Lactobacillus species; 0.2 ppm", "result": "+++ Growth"}, {"measurement": "growth (turbidity score)", "setting": "Lactobacillus species; 0.39 ppm", "result": "+++ Growth"}, {"measurement": "growth (turbidity score)", "setting": "Lactobacillus species; 0.78 ppm", "result": "+++ Growth"}, {"measurement": "growth (turbidity score)", "setting": "Lactobacillus species; 1.56 ppm", "result": "+++ Growth"}, {"measurement": "growth (turbidity score)", "setting": "Lactobacillus species; 3.125 ppm", "result": "+++ Growth"}, {"measurement": "growth (turbidity score)", "setting": "Lactobacillus species; 6.25 ppm", "result": "+++ Growth"}, {"measurement": "growth (turbidity score)", "setting": "Lactobacillus species; 12.5 ppm", "result": "++ Growth"}, {"measurement": "growth (turbidity score)", "setting": "Lactobacillus species; 25 ppm", "result": "+/− Growth"}, {"measurement": "growth (turbidity score)", "setting": "Lactobacillus species; 50 ppm", "result": "No growth"}, {"measurement": "growth (turbidity score)", "setting": "Lactobacillus species; 100 ppm", "result": "No growth"}, {"measurement": "concentration as high as which Lactobacillus exhibited strong growth", "setting": "Lactobacillus species", "result": 12.5, "unit": "ppm"}]}
